From US6716852B2, “Amino acid derivatives and use thereof as NEP, ACE and ECE inhibitors” (Les Laboratories Servier, priority 2000, dated 2004)

Columns and labels:
Type in all cases: biochemical
Neutral endopeptidase = biological target: T1, Neutral endopeptidase (Oryctolagus cuniculus, UniProt P08049); experiment: Inhibition of neutral endopeptidase (fluorescent substrate DGNPA); conditions: NEP purified from rabbit kidney
T1 construct: Neutral endopeptidase is purified from rabbit kidney; from tissue; host or cells: rabbit kidney
T1 sequence (P08049 1-750): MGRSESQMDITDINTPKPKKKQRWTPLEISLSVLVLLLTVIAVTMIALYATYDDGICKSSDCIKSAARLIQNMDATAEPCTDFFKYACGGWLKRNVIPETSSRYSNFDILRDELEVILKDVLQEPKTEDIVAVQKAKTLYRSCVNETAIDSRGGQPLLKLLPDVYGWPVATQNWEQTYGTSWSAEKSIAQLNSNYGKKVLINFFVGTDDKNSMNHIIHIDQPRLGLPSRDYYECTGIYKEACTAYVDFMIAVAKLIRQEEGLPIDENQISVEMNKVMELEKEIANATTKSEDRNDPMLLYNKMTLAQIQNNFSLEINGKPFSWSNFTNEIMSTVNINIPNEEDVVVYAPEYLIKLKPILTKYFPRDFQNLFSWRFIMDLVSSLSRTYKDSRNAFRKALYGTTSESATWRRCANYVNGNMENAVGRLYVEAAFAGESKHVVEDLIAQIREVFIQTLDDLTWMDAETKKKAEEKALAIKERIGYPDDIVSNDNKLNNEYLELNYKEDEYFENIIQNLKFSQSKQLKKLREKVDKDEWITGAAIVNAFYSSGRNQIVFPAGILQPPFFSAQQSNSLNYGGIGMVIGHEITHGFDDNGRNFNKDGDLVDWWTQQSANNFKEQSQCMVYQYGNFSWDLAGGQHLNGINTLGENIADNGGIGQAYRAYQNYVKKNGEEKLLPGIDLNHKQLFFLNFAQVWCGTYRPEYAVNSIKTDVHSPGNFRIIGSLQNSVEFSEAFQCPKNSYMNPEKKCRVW
Description: Neutral endopeptidase is purified from rabbit kidney according to the procedure described by Aubry et al. (Biochem. Cell Biol., 1987, 65, pp. 1037-1042).

[1] = biological target: T2, angiotensin I converting enzyme (ACE) (Rattus norvegicus, UniProt P47820); experiment: Inhibition of angiotensin I converting enzyme (substrate N-Cbz-Phe-His-Leu); conditions: ACE purified from rat testicle
T2 construct: ACE is purified from rat testicle; from tissue; host or cells: rat testicle
T2 sequence (P47820 1-775 isoform P47820-2): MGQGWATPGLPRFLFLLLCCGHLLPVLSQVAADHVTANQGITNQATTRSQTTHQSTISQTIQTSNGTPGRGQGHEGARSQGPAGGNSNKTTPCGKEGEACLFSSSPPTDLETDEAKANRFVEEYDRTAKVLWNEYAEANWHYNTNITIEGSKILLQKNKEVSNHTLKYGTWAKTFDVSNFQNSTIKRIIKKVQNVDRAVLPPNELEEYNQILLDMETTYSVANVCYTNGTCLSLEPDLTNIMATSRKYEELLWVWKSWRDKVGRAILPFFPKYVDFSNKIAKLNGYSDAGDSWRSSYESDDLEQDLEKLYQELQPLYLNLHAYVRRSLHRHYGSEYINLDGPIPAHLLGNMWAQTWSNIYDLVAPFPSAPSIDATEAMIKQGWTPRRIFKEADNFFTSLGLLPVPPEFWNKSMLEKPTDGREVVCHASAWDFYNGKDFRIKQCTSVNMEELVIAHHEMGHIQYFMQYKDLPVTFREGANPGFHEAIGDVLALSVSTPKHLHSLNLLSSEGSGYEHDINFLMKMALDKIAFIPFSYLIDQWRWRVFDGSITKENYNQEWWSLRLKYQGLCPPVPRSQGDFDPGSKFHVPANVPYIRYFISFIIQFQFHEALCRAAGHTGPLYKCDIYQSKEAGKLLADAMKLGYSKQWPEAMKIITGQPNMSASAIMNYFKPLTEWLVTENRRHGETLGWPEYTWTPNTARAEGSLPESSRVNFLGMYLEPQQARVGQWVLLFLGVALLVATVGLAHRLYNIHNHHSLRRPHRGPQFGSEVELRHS
Method: ACE is purified from rat testicle according to the procedure described by Pantaliano et al. (Biochemistry, 1984, 23, pp. 1037-1042).
The enzyme activity is measured using the synthetic substrate N-Cbz-Phe-His-Leu, Km=[…] (Piquilloud Y. et al., Biochem. Biophys. Acta, 1970, 206, pp. 136-142).

ECE-1c = biological target: T3, ECE-1c (Homo sapiens, UniProt P42892); experiment: Inhibition of endothelin converting enzyme (radiolabelled BigET-1 (19-35) substrate); conditions: ECE-1c expressed in Cos-7 cells; preincubated 10 minutes at 37° C., pH 6.5; read-out: Ki, inhibition of big endothelin converting enzyme
T3 construct: made in house; host or cells: Cos-7 cells (pcDNA3 vector, electroporation); membrane fraction extracted with 1% beta-octylglucose
T3 sequence (P42892 1-754 isoform P42892-3): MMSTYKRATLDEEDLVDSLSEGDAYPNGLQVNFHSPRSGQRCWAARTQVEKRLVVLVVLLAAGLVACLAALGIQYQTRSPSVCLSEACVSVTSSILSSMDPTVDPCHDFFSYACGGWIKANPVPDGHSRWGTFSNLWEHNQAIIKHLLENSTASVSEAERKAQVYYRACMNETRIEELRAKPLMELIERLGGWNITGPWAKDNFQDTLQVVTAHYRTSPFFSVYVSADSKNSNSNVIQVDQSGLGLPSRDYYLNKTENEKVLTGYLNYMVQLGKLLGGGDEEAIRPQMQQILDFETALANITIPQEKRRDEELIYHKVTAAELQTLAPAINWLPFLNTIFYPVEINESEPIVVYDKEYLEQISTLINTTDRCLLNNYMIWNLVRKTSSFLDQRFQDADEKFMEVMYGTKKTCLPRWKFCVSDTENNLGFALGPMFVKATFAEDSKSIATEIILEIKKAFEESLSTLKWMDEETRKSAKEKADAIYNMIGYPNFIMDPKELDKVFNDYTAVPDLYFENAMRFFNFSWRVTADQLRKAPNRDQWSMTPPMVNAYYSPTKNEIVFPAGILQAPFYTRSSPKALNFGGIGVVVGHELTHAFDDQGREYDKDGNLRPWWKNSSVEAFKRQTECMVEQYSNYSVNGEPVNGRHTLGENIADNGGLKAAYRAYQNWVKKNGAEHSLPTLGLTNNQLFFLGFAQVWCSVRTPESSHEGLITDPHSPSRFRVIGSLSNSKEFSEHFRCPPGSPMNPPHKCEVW
Method: The cDNA of ECE-1c (membrane form of the enzyme, Biochem. J., 1997, 328, pp. 871-877), was inserted into a pcDNA3 eucaryotic expression vector and then transfected by electroporation and expressed in Cos-7 cells.
To measure the ECE activity, the cells are homogenised and the membrane fraction is recovered. The enzyme is extracted by dissolution in β-octylglucose (1%).
The peptide BigET-1 (19-35) was prepared by solid phase synthesis in Fmoc chemistry and purified by semi-preparative HPLC. The propionylation of the peptide was effected by the action of N-succinimidyl-[2,3-^3H]-propionate on the peptide BigET-1 (19-35) and the radiolabelled product was purified by HPLC. The specific activity of the substrate is 97 Ci/mmole.
ECE-1c (10 μl of a solution diluted to 1/10) is dissolved in 400 μl of Trismaleate 50 mM, pH 6.5, in the presence of 250 mM NaCl. The reaction is initiated by the addition of 10 μl of the radioactive substrate (final concentration 1×10^−9 M). After incubation for 1 hour at 37° C., the reaction is stopped by the addition of 600 μl of ethyl acetate. The metabolite is separated from the intact substrate by liquid—liquid extraction. The radioactivity of the metabolite is determined by liquid scintillation. The kinetic constants of the substrate are: Km=[…] and Vmax=2.98±0.24 mmol/mg. prot./min.
The controls of 0% and 100% degradation are obtained, respectively, by incubation of the substrate with the inactivated enzyme and with the native enzyme in the absence of inhibitors.

| Ki (Neutral endopeptidase) | Ki [1] | Ki (ECE-1c) | SMILES |
| --- | --- | --- | --- |
| 10.2 ± 0.3 nM | 3.7 ± 0.38 nM | 21.2 ± 2.5 nM | O=C(N[C@@H](Cc1c[nH]c2c1ccc1cccnc12)C(=O)O)C(CS)C1CCc2cc(Br)ccc21 (stereo partly drawn) [63 (2S-3R-4S), N-[2-(5-Bromo-2,3-dihydro-1H-inden-1-yl)-3-mercaptopropanoyl]-3-(1H-pyrrolo[3,2-h]quinolin-3-yl)alanine] |
| 3.28 ± 0.35 nM | 4.09 ± 0.49 nM | 24.4 ± 1.4 nM | O=C(N[C@@H](Cc1c[nH]c2ccccc12)C(=O)O)C(CS)C1CCc2cc(Br)ccc21 (stereo partly drawn) [13 (2S-3R-4S), N-[2-(5-Bromo-2,3-dihydro-1H-inden-1-yl)-3-mercaptopropanoyl]-tryptophan] |
| 2.91 ± 0.67 nM | 1.32 ± 0.17 nM | 23.3 ± 3.2 nM | O=C(N[C@@H](Cc1c[nH]c2ncccc12)C(=O)O)C(CS)C1CCc2cc(Br)ccc21 (stereo partly drawn) [33 (2S-3R-4S), N-[2-(5-Bromo-2,3-dihydro-1H-inden-1-yl)-3-mercaptopropanoyl]-3-(1H-pyrrolo [2,3-b]pyridin-3-yl)alanine] |
